Here are results for four compounds from patent US20220194918A1, “PLEUROMULIN LIPOIC ACID ESTER WITH ANTIBACTERIAL ACTIVITY AND A METHOD OF PREPARING THE SAME” (SHAANXI UNIVERSITY OF SCIENCE AND TECHNOLOGY, priority 2020, published 2022).

What all share (type): cell-based
Experiment [1] concerns multi-resistant Staphylococcus aureus 18-206. Nature of the experiment: Paper diffusion drug sensitivity test, multi-resistant Staphylococcus aureus 18-206. The settings on record: for Zone of inhibition: Multi-resistant Staphylococcus aureus 18-206, 30 μg/tablet paper disc, LB plate, 37° C., 24 h; for inhibitory effect (in words): multi-drug resistant Staphylococcus aureus 18-206, FIGS. 1-3 and Table 1. The protocol:
(§1) The antimicrobial efficacy was determined by a paper diffusion drug sensitivity test.
(§2) Experimental strains: multi-resistant Staphylococcus aureus 18-206, multi-resistant Staphylococcus aureus 18-222, multi-resistant Staphylococcus aureus 18-596. The experimental strain was identified by Huashan Hospital Affiliated to Fudan University (Institute of Antibiotic of Fudan University).
(§3) Drug sensitive paper: The drug sensitive paper is a special drug sensitive paper with a diameter of 6.35 mm and a water absorption of 0.02 mL. The control drug was vancomycin (30μg/tablet); the test drugs were pleuromulin (30 μg/tablet), lipoic acid (30 μg/tablet) and pleuromulin lipoic acid ester (30 μg/tablet).
(§4) Reagents: LB agar medium, LA broth medium, 0.5% DMSO solution.
(§5) The experimental strains were inoculated in non-selective medium and placed in air at 37° C. for 24 h. Pick a single colony that grows well and inoculate it into broth medium, incubate at 35° C.±2° C. for 6 hours, and use LA broth medium to calibrate the concentration of the bacterial solution to 0.5 Mie turbidimetric tube (1.5×10^8 CFU/mL). A bacterial suspension is obtained.
(§6) Weigh the LB dry powder, sterilize at 103.4 Kpa, 121.3° C. high-pressure steam for 15 min, and then put it in a 40° C.-50° C. water bath. Place a sterile empty plate (inner diameter 9 cm) on the surface of the ultra-clean table water table, shake and shake LB, and then pour the plate. The thickness of each plate is 3 mm to 4 mm. After the plate is cooled at room temperature, store it in the refrigerator at 2° C.-8° C. Use a sterile cotton swab to dip the bacterial solution, and evenly coat the surface of the LB plate 3 times. After inoculation of the bacterial suspension, the LB plate was dried at room temperature for 3 min to 5 min. Use sterile forceps to closely attach the antibacterial drug paper to the dish. Put the dish upside down and place it in a 37° C. incubator for 24 h. Observe the result and measure the diameter. Taking 0.5% DMSO solution as a negative control, the antibacterial activity is expressed by the diameter of the inhibition zone. The inhibition zone 17 mm, sensitive; the inhibition zone is 15 mm-16 mm, intermediary; the inhibition zone 14 mm, drug resistance.

Experiment [2] relates to multi-resistant Staphylococcus aureus 18-222. Kind of experiment: Paper diffusion drug sensitivity test, multi-resistant Staphylococcus aureus 18-222. The conditions noted are these: for Zone of inhibition: Multi-resistant Staphylococcus aureus 18-222, 30 μg/tablet paper disc, LB plate, 37° C., 24 h; for inhibitory effect (in words): multi-drug resistant Staphylococcus aureus 18-222, FIGS. 1-3 and Table 1. The procedure:
as §1, §2, §3, §4, §5, §6

For experiment [3], the system named is multi-resistant Staphylococcus aureus 18-596. Nature of the experiment: Paper diffusion drug sensitivity test, multi-resistant Staphylococcus aureus 18-596. The settings on record: for Zone of inhibition: Multi-resistant Staphylococcus aureus 18-596, 30 μg/tablet paper disc, LB plate, 37° C., 24 h; for inhibitory effect (in words): multi-drug resistant Staphylococcus aureus 18-596, FIGS. 1-3 and Table 1. The procedure: as §1, §2, §3, §4, §5, §6

For `C=C[C@]1(C)C[C@@H](OC(=O)COC(=O)CCCCC2CCSS2)[C@]2(C)CC[C@@H](C)[C@@]3(CCC(=O)[C@@H]23)[C@@H](C)[C@@H]1O` (stereo partly drawn) [Pleuromulin lipoic acid ester, 2-(((3aS,4R,5S,6S, 8R,9R,9aR,12R)-5-hydroxy-4,6,9,12-tetramethyl-1-oxo-6-vinyldecahydro-3 a, 9-propanocyclopenta[8]annulen-8-yl)oxy)-2-oxoethyl 5-(1,2-dithiolan-3-yl)pentanoate], the Zone of inhibition in experiment [1] worked out at 16 mm; in experiment [2], 16 mm; in experiment [3], 20 mm. Also, the “inhibitory effect (in words)” value in experiment [1], in experiment [2] and in experiment [3] was “strong inhibitory effects” throughout. Moreover, the “diameter of bacteriostatic zone” value in experiment [3] (multidrug resistant Staphylococcus aureus 18-596) is listed as “up to 21 mm”.

`CN[C@H](CC(C)C)C(=O)N[C@H]1C(=O)N[C@@H](CC(N)=O)C(=O)N[C@H]2C(=O)N[C@H]3C(=O)N[C@H](C(=O)N[C@H](C(=O)O)c4cc(O)cc(O)c4-c4cc3ccc4O)[C@H](O)c3ccc(c(Cl)c3)Oc3cc2cc(c3O[C@@H]2O[C@H](CO)[C@@H](O)[C@H](O)[C@H]2O[C@H]2C[C@](C)(N)[C@H](O)[C@H](C)O2)Oc2ccc(cc2Cl)[C@H]1O` [Vancomycin]: the results for the Zone of inhibition in experiment [1], in experiment [2] and in experiment [3] were 17 mm, 18 mm and 21 mm, respectively.

Turning to `C=C[C@]1(C)C[C@@H](OC(=O)CO)[C@]2(C)[C@H](C)CC[C@]3(CCC(=O)[C@H]32)[C@@H](C)[C@@H]1O` [Pleuromulin], the Zone of inhibition in experiment [1], in experiment [2] and in experiment [3] was 0 mm in each case. In addition, the “inhibitory effect (in words)” value in experiment [1], in experiment [2] and in experiment [3] was “no inhibitory effect” throughout.

With `O=C(O)CCCC[C@@H]1CCSS1` (racemic) [Lipoic acid], the Zone of inhibition in experiment [1], in experiment [2] and in experiment [3] was 0 mm each time. For the same compound, the “inhibitory effect (in words)” value in experiment [1], in experiment [2] and in experiment [3] was “no inhibitory effect” in each case.
